Test [1] has as its target GST-Bcl-2 (Homo sapiens, UniProt P10415). The experiment in a line: TR-FRET binding assay, GST-Bcl-2 with F-Bak peptide probe. Particulars: for Ki: TR-FRET Binding Affinity, GST-Bcl-2, F-Bak peptide probe; for Binding selectivity ratio (Bcl-XL Ki/Bcl-2 Ki): ratio of TR-FRET Ki values, Bcl-XL over Bcl-2. The method in brief:
(§1)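 Ki was derived with Wang's equation for competitive binding of two ligands. The read-out was time-resolved fluorescence after a 3 h room-temperature incubation, using a Tb-labelled antibody donor and the F-Bak peptide acceptor (excitation 340/35 nm). Test compounds entered as DMSO serial dilutions starting at 50 μM, which was the 2× concentration.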

In test [2] the target is GST-Bcl-XL (Homo sapiens, UniProt Q07817). The experiment in a line: TR-FRET binding assay, GST-Bcl-XL with F-Bak peptide probe. Particulars: TR-FRET Binding Affinity, GST-Bcl-XL, F-Bak peptide probe. An outline of the steps:
as §1

SMILES strings stand for the structures. A value given as a limit tells only on which side of the number the result lay.

Chain of GST-Bcl-2 (P10415 whole entry): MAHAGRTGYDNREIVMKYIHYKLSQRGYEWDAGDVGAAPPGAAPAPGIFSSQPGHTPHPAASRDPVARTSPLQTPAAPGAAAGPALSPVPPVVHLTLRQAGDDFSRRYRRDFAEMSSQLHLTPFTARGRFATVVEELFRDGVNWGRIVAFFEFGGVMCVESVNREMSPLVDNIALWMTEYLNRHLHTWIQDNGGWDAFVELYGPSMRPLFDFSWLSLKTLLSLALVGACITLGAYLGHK
Chain of GST-Bcl-XL (Q07817 whole entry): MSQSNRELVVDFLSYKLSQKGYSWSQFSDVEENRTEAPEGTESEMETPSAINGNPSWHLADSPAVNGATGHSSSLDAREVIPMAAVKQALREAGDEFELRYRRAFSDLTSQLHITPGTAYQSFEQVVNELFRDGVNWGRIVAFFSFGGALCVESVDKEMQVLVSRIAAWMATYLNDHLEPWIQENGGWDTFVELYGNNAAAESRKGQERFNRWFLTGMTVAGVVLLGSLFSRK

Regarding `CN1CC[C@H](Nc2ccc(S(=O)(=O)NC(=O)c3ccc(N4CCN(CC5=C(c6ccc(Cl)cc6)CC(C)(C)CC5)CC4)cc3Oc3ccc4[nH]ccc4c3)cc2[N+](=O)[O-])C1` [Example 234, 4-(4-{[2-(4-chlorophenyl)-4,4-dimethylcyclohex-1-en-1-yl]methyl}piperazin-1-yl)-2-(1H-indol-5-yloxy)-N-[(4-{[(3S)-1-methylpyrrolidin-3-yl]amino}-3-nitrophenyl)sulfonyl]benzamide], the Ki in test [1] was found to be 0.369 nM; in test [2], 24.5 nM.
The like results for `CC1(C)CCC(CN2CCN(c3ccc(C(=O)NS(=O)(=O)c4ccc(NC5CCN(CCCF)CC5)c([N+](=O)[O-])c4)c(Oc4ccc5[nH]ccc5c4)c3)CC2)=C(c2ccc(Cl)cc2)C1` [Example 235, 4-(4-{[2-(4-chlorophenyl)-4,4-dimethylcyclohex-1-en-1-yl]methyl}piperazin-1-yl)-N-[(4-{[1-(3-fluoropropyl)piperidin-4-yl]amino}-3-nitrophenyl)sulfonyl]-2-(1H-indol-5-yloxy)benzamide] were, in that order, 0.252 nM and 58.2 nM.
For the molecule `CC1(C)CCC(CN2CCN(c3ccc(C(=O)NS(=O)(=O)c4ccc(NCC5CCOCC5)c([N+](=O)[O-])c4)c(Oc4ccc5[nH]ccc5c4)c3)CC2CO)=C(c2ccc(Cl)cc2)C1` (centres unmarked) [Example 236, 4-[4-{[2-(4-chlorophenyl)-4,4-dimethylcyclohex-1-en-1-yl]methyl}-3-(hydroxymethyl)piperazin-1-yl]-2-(1H-indol-5-yloxy)-N-({3-nitro-4-[(tetrahydro-2H-pyran-4-ylmethyl)amino]phenyl}sulfonyl)benzamide], the Ki is 0.369 nM in test [1] and over 660 nM in test [2].
The like results for `CC1(C)CCC(CN2CCN(c3ccc(C(=O)NS(=O)(=O)c4ccc(NCC5(N)CCOCC5)c([N+](=O)[O-])c4)c(Oc4ccc5[nH]ccc5c4)c3)CC2CO)=C(c2ccc(Cl)cc2)C1` (centres unmarked) [Example 237, N-[(4-{[(4-aminotetrahydro-2H-pyran-4-yl)methyl]amino}-3-nitrophenyl)sulfonyl]-4-[4-{[2-(4-chlorophenyl)-4,4-dimethylcyclohex-1-en-1-yl]methyl}-3-(hydroxymethyl)piperazin-1-yl]-2-(1H-indol-5-yloxy)benzamide] were, in that order, 0.401 nM and 268 nM.
Turning to `CC1(C)CCC(CN2CCN(c3ccc(C(=O)NS(=O)(=O)c4ccc(NC5(CO)CCOCC5)c([N+](=O)[O-])c4)c(Oc4cccc5[nH]ccc45)c3)CC2)=C(c2ccc(Cl)cc2)C1` [Example 241, 4-(4-{[2-(4-chlorophenyl)-4,4-dimethylcyclohex-1-en-1-yl]methyl}piperazin-1-yl)-N-[(4-{[4-(hydroxymethyl)tetrahydro-2H-pyran-4-yl]amino}-3-nitrophenyl)sulfonyl]-2-(1H-indol-4-yloxy)benzamide], the Ki in test [1] is 6.09 nM; in test [2], over 660 nM.
In the case of `CC1(C)CCC(CN2CCN(c3ccc(C(=O)NS(=O)(=O)c4cnc(OCCN5CCOCC5)c(C#N)c4)c(Oc4cccc5[nH]ccc45)c3)CC2)=C(c2ccc(Cl)cc2)C1` [Example 392, 4-(4-{[2-(4-chlorophenyl)-4,4-dimethylcyclohex-1-en-1-yl]methyl}piperazin-1-yl)-N-{[5-cyano-6-(2-morpholin-4-ylethoxy)pyridin-3-yl]sulfonyl}-2-(1H-indol-4-yloxy)benzamide], the Ki in test [1] amounted to 0.38 nM; in test [2], 122 nM. In addition, the “Binding selectivity ratio (Bcl-XL Ki/Bcl-2 Ki)” value (from here on “Binding selectivity ratio”) in test [1] amounted to 320.2.
Taken in the same sequence, the figures for `CC1(C)CCC(CN2CCN(c3ccc(C(=O)NS(=O)(=O)c4cnc(OCC5(F)CCOCC5)c(C#N)c4)c(Oc4cccc5[nH]ccc45)c3)CC2)=C(c2ccc(Cl)cc2)C1` [Example 393, 4-(4-{[2-(4-chlorophenyl)-4,4-dimethylcyclohex-1-en-1-yl]methyl}piperazin-1-yl)-N-({5-cyano-6-[(4-fluorotetrahydro-2H-pyran-4-yl)methoxy]pyridin-3-yl}sulfonyl)-2-(1H-indol-4-yloxy)benzamide] were 0.083 nM, 92.1 nM and 1109.6.
Taken in the same sequence, the figures for `COc1ccc(Nc2ccc(S(=O)(=O)NC(=O)c3ccc(N4CCN(CC5=C(c6ccc(Cl)cc6)CC(C)(C)CC5)CC4)cc3Oc3ccc4[nH]ccc4c3)cc2[N+](=O)[O-])cc1O` [Example 394, 4-(4-{[2-(4-chlorophenyl)-4,4-dimethylcyclohex-1-en-1-yl]methyl}piperazin-1-yl)-N-({4-[(3-hydroxy-4-methoxyphenyl)amino]-3-nitrophenyl}sulfonyl)-2-(1H-indol-5-yloxy)benzamide] were 2.51 nM, over 660000 nM and over 263262.9.
Take `CN1CCC(Nc2ccc(S(=O)(=O)NC(=O)c3ccc(N4CCN(CC5=C(c6ccc(Cl)cc6)CC(C)(C)CC5)CC4)cc3Oc3cccc4c3CCN4)cc2[N+](=O)[O-])CC1` [Example 395, 4-(4-{[2-(4-chlorophenyl)-4,4-dimethylcyclohex-1-en-1-yl]methyl}piperazin-1-yl)-2-(2,3-dihydro-1H-indol-4-yloxy)-N-({4-[(1-methylpiperidin-4-yl)amino]-3-nitrophenyl}sulfonyl)benzamide]: in test [1], the affinity corresponds to a Ki of 0.798 nM and the “Binding selectivity ratio” value is 23.6. For the same molecule, in test [2], the Ki was 18.8 nM.
As to `CC1(C)CCC(CN2CCN(c3ccc(C(=O)NS(=O)(=O)c4ccc(NC5CCN(C6CCOCC6)CC5)c([N+](=O)[O-])c4)c(Nc4cccnc4)c3)CC2)=C(c2ccc(Cl)cc2)C1` [Example 397, 4-(4-{[2-(4-chlorophenyl)-4,4-dimethylcyclohex-1-en-1-yl]methyl}piperazin-1-yl)-N-({3-nitro-4-[(1-tetrahydro-2H-pyran-4-ylpiperidin-4-yl)amino]phenyl}sulfonyl)-2-(pyridin-3-ylamino)benzamide], in test [1], the Ki came out at 23 nM and the “Binding selectivity ratio” value is listed as over 28730.6. This molecule showed a Ki in test [2] of over 660000 nM.
The like results for `CC1(C)CCC(CN2CCN(c3ccc(C(=O)NS(=O)(=O)c4cnc(NCC5(F)CCOCC5)c(Cl)c4)c(Oc4cccc5[nH]ncc45)c3)CC2)=C(c2ccc(Cl)cc2)C1` [Example 413, N-[(5-chloro-6-{[(4-fluorotetrahydro-2H-pyran-4-yl)methyl]amino}pyridin-3-yl)sulfonyl]-4-(4-{[2-(4-chlorophenyl)-4,4-dimethylcyclohex-1-en-1-yl]methyl}piperazin-1-yl)-2-(1H-indazol-4-yloxy)benzamide] were, in that order, 0.12 nM, 803.8 and 96.8 nM.
Turning to `CO[C@H]1CC[C@H](COc2ncc(S(=O)(=O)NC(=O)c3ccc(N4CCN(CC5=C(c6ccc(Cl)cc6)CC(C)(C)CC5)CC4)cc3Oc3cccc4[nH]ncc34)cc2Cl)CC1` [Example 414, Trans-N-({5-chloro-6-[(4-methoxycyclohexyl)methoxy]pyridin-3-yl}sulfonyl)-4-(4-{[2-(4-chlorophenyl)-4,4-dimethylcyclohex-1-en-1-yl]methyl}piperazin-1-yl)-2-(1H-indazol-4-yloxy)benzamide], the Ki in test [1] was determined as 0.007 nM; in test [2], 95.6 nM.
`CC1(C)CCC(CN2CCN(c3ccc(C(=O)NS(=O)(=O)c4ccc(NCC5CN(CC(F)F)CCO5)c([N+](=O)[O-])c4)c(Oc4cccc5[nH]cnc45)c3)CC2)=C(c2ccc(Cl)cc2)C1` (centres unmarked) [Example 415, 2-(1H-benzimidazol-4-yloxy)-4-(4-{[2-(4-chlorophenyl)-4,4-dimethylcyclohex-1-en-1-yl]methyl}piperazin-1-yl)-N-{[4-({[4-(2,2-difluoroethyl)morpholin-2-yl]methyl}amino)-3-nitrophenyl]sulfonyl}benzamide]: in test [1], the Ki was 0.002 nM and the “Binding selectivity ratio” value was determined as 17326.9. Also, the Ki in test [2] was determined as 26.9 nM.
Consider `CC1(C)CCC(CN2CCN(c3ccc(C(=O)NS(=O)(=O)c4cnc(OCC5(F)CCOCC5)c(F)c4)c(Oc4cccc5[nH]ncc45)c3)CC2)=C(c2ccc(Cl)cc2)C1` [Example 416, 4-(4-{[2-(4-chlorophenyl)-4,4-dimethylcyclohex-1-en-1-yl]methyl}piperazin-1-yl)-N-({5-fluoro-6-[(4-fluorotetrahydro-2H-pyran-4-yl)methoxy]pyridin-3-yl}sulfonyl)-2-(1H-indazol-4-yloxy)benzamide], for which the Ki in test [1] was found to be 0.023 nM; in test [2], 59.1 nM.
As for `CC1(C)CCC(CN2CCN(c3ccc(C(=O)NS(=O)(=O)c4ccc(NC5CCN(C6CCOCC6)CC5)c([N+](=O)[O-])c4)c(Oc4cccc5[nH]cnc45)c3)CC2)=C(c2ccc(Cl)cc2)C1` [Example 417, 2-(1H-benzimidazol-4-yloxy)-4-(4-{[2-(4-chlorophenyl)-4,4-dimethylcyclohex-1-en-1-yl]methyl}piperazin-1-yl)-N-({3-nitro-4-[(1-tetrahydro-2H-pyran-4-ylpiperidin-4-yl)amino]phenyl}sulfonyl)benzamide], the Ki in test [1] turned out to be 0.046 nM; in test [2], 3.99 nM. Moreover, the “Binding selectivity ratio” value in test [1] came out at 87.1.
Taken in the same sequence, the figures for `CN1CCC(Nc2ccc(S(=O)(=O)NC(=O)c3ccc(N4CCN(CC5=C(c6ccc(Cl)cc6)CC(C)(C)CC5)CC4)cc3Oc3cccc4[nH]cnc34)cc2[N+](=O)[O-])CC1` [Example 418, 2-(1H-benzimidazol-4-yloxy)-4-(4-{[2-(4-chlorophenyl)-4,4-dimethylcyclohex-1-en-1-yl]methyl}piperazin-1-yl)-N-({4-[(1-methylpiperidin-4-yl)amino]-3-nitrophenyl}sulfonyl)benzamide] were 0.004 nM, 1.57 nM and 404.7.

The record behind these values is US9073855B2, “BCL-2 selective apoptosis-inducing agents for the treatment of cancer and immune diseases” (AbbVie Inc., priority 2008, dated 2015).
